Results published in patent publication US20250049737A1, “Lauflumide and derivatives thereof for treating chronic fatigue syndrome and myalgic encephalomyelitis/chronic fatigue syndrome (ME/CFS)” (NLS Pharmaceutics AG, priority 2021, published 2025).
Entries after “also recorded” stand apart in the source; their conditions may differ.

Experiments:
[1] = system: Rat model of severe fatigue; experiment: Rat model of severe fatigue (sleep deprivation): recording of circadian locomotor activity; type: in vivo, Rats, Sprague-Dawley; details: for Difference of distance travelled between the dark phase and the light phase / Distance travelled during the 12-h dark phase / Distance travelled during the 12-h light phase / Total distance travelled during the full 24-h period: days 1, 2 and 3
Procedure: In the following example, Lauflumide is also called NLS-4.
Animals are individually housed in transparent polycarbonate cages (1354G Eurostandard Type IV cage, Tecniplast, Italy, 595×380×200 mm, floor area=1820 cm^2) filled with water (23±1° C.) to a height of 1.5 cm. A platform (5 cm height, 6.5 cm diameter) was located at the center of the cage. Animals can stay on the platform in order to stay dry but falls from it when it falls in deep sleep. […] During this period, animals were placed in a modified light/dark cycle with variable durations of the light and dark periods which change every day. This procedure is intended to disrupt the circadian rhythm.
The Sham group was housed in normal condition for the same period under a 12/12 h light/dark cycle.
After the end of the fatigue period, animals were placed in transparent polycarbonate cages (Type E, Iffa Credo, France, 450×300×200 mm, floor area=1032 cm^2), under a 12 h/12 h cycle. Cages were covered with a stainless steel grid in which food and a bottle are placed. A stainless steel removable divider separated food and water. The cages were placed in infrared photobeam detection systems (Acti-track, LSI Leticca, Panlab) allowing to record continuously the distance travelled in the cage. Locomotor activity was recorded continuously for 3 days. The test started at the beginning of the dark phase of the light/dark cycle.
Seventy-six animals were subjected to the fatigue procedure and to the tests as described above. Twelve animals (Sham group) were housed in standard condition.
(§1) After the end of the Fatigue procedure, animals were divided into 10 groups which received before tests (total: 3 administrations) a per-os (p.o., oral gavage) administration of: • Sham (no fatigue) group (N=12): Vehicle. • Control group (N=11): Vehicle. • Modafinil 32 (N=10): modafinil (32 mg/kg). • Modafinil 64 (N=10): modafinil (64 mg/kg). • Modafinil 128 (N=5): modafinil (128 mg/kg). • NLS-4 16 (N=5): NLS-4 (16 mg/kg). • NLS-4 32 (N=10): NLS-4 (32 mg/kg). • NLS-4 64 (N=10): NLS-4 (64 mg/kg). • NLS-4 128 (N=10): NLS-4 (128 mg/kg). • NLS-4 256 (N=5): NLS-4 (256 mg/kg).
Read-out: distance travelled during 24-h periods, 12-h dark and light periods and during 2-h periods.
Data are expressed as mean and standard error of mean (SEM).
Statistical analyses: Student's t test, repeated measure ANOVA.
A difference is considered statistically significant at p≤0.05.

[2] = Body weight during fatigue procedure and test period; type: in vivo, Rats, Sprague-Dawley; details: 32-128 mg/kg p.o.; test period
Procedure: FIG. 26 Body weight (in g; mean, SEM) before the beginning and during the fatigue procedure (F-D1-7) and during the test period (T-D1-D3+24 h).
Animals were weighed every day.
as §1

[3] = system: cocaine conditioned place preference; details: 128 mg/kg; rats; cited from earlier work
[4] = 32 mg/kg p.o., vs. Control (fatigue) group
[5] = 32 mg/kg p.o., vs. Sham (no fatigue) group
[6] = 64 mg/kg p.o., vs. Control (fatigue) group
[7] = 64 mg/kg p.o., vs. Sham (no fatigue) group
[8] = 128 mg/kg p.o., vs. Control (fatigue) group
[9] = 128 mg/kg p.o., vs. Sham (no fatigue) group

Compound: NC(=O)C[S+]([O-])C(c1ccccc1)c1ccccc1 (stereo not drawn) [Modafinil, reference compound]
- Motor activity during the first 2-h periods following the dosing ([1]; 32 mg/kg p.o.): increased
- Activity during the following 22 h ([1]; 32 mg/kg p.o., after the first 2-h period following dosing): few or no modification
- Difference of distance travelled between the dark phase and the light phase [1, 4]: not significantly different
- Distance travelled during the 12-h dark phase [1, 4]: not significantly different
- Distance travelled during the 12-h light phase [1, 4]: not significantly different
- Total distance travelled during the full 24-h period [1, 4]: not significantly different
- Difference of distance travelled between the dark phase and the light phase [1, 5]: not lower than the Sham group on days 1 and 2 only
- Distance travelled during the 12-h dark phase [1, 5]: lower than the Sham group during the dark phase on days 1 and 2 only
- Distance travelled during the 12-h light phase [1, 5]: higher than the Sham group during the light phase on day 1 only
- Total distance travelled during the full 24-h period [1, 5]: not significantly different
- Motor activity during the first 2-h periods following the dosing ([1]; 64 mg/kg p.o.): increased
- Difference of distance travelled between the dark phase and the light phase [1, 6]: higher; also recorded: increased
- Distance travelled during the 12-h dark phase [1, 6]: higher
- Distance travelled during the 12-h light phase [1, 6]: not significantly different
- Total distance travelled during the full 24-h period [1, 6]: higher
- Difference of distance travelled between the dark phase and the light phase [1, 7]: not significantly different
- Distance travelled during the 12-h dark phase [1, 7]: not significantly different
- Distance travelled during the 12-h light phase [1, 7]: not significantly different
- Total distance travelled during the full 24-h period [1, 7]: not significantly different
- Difference of distance travelled between the dark phase and the light phase [1, 8]: higher for the Modafinil 128 group than for the Control group on days 1 and 2 only; also recorded: increased
- Distance travelled during the 12-h dark phase [1, 8]: higher for the Modafinil 128 group than for the Control group during the dark period on days 1 and 2 only
- Distance travelled during the 12-h light phase [1, 8]: not significantly different
- Total distance travelled during the full 24-h period [1, 8]: higher for the Modafinil 128 group than for the Control group on day 1 only
- Distance travelled during the 12-h dark phase [1, 9]: increase the distance travelled in comparison with the Sham group during the dark phase on day 1
- Total distance travelled during the full 24-h period [1, 9]: increase the distance travelled in comparison with the Sham group on day 1
- Weight loss induced by the fatigue procedure [2]: not modified
- Cocaine conditioned place preference following extinction [3]: strongly reinstated
